Data on two compounds can be found in patent US4782092A, “5,8-dichloro-4-hydroxy-1-[(aminoalkyl) amino]-9,10-anthracenediones, pharmaceutical compositions and use” (Mid-America Cancer Center, priority 1986, dated 1988).

One assay deals with L1210 Leukemia. The experiment in a line: growth-inhibitory effects against mouse tumor line L1210 in suspension cell culture. Format: cell-based. The note with it: L1210, 72 h. The procedure:
In another test protocol, growth-inhibitory effects are measured against the mouse tumor line L1210 in suspension cell culture. Cell cultures were initiated at a density of 50,000 cells/ml in medium RPMI […] supplemented with 10 percent fetal calf serum. Composition of this culture medium and details of the culture procedure follow the published method (Journal of the National Cancer Institute 36, 405-415, 1966). Cultures are maintained at 37 degrees in stationary suspension culture under a 95 percent air +5 percent CO2 atmosphere. Test compounds are added to treated cultures at the time of initiation, and are present continually. After 72 hours, 40-fold dilutions of drug-treated and untreated control cultures are prepared in 0.9 percent NaCl solution, and cells are counted on an electronic particle counter. The growth-inhibitory effects are expressed as ID50 values, namely test compound inhibitory dosages or concentrations required to decrease cell count in treated cultures to 50 percent of the cell count of untreated control cultures.

The test system of the next assay is P388 Leukemia. The experiment in a line: in vivo lymphocytic leukemia P388 test. More on the design: species or system mice (CD2 F1). The note with it: IP/IP, QOID × 5. The method, then:
Another test protocol is the in vivo lymphocytic leukemia P388 test. The animals used are either male or female CD2 F1 mice, six or seven animals per test group. The tumor transplant is by intraperitoneal injection of dilute ascitic fluid containing cells of lymphocytic leukemia P388. The test compounds are administered intraperitoneally once daily for five consecutive days at various doses following tumor inoculation. The animals are weighed and survivors are recorded on a regular basis for 30 days. A compound is designated "toxic" if, at a given dose, all animals died prior to four days after the first injection of drug. A ratio of survival time for treated (T)/control (C) animals is calculated. A criterion for efficacy is a ratio T/C times 100 greater than or equal to 125. See Cancer Chemotherapy Reports, Part 3, 3, 1 (1972) for a comprehensive discussion of the protocol.

The subject of assay [1] is Alcaligenes viscolactis (ATCC-21698). The assay is described as follows: in vitro antibacterial/antifungal (ABF) agar-disk diffusion assay, Alcaligenes viscolactis. Format: cell-based. Particulars: read-out: Inhibition Zone Diameter. The method, then: (§1) One test protocol is the in vitro antibacterial/antifungal (ABF) test. Compounds are tested for antimicrobial activity in an agar-disk diffusion assay, a standard microbiological technique for testing antibiotics. After incubation of each culture with a test compound, a zone of inhibition is determined. The zone diameter (mm) of active compounds ranges from a minimum of 14 mm to as high as 18 mm, with a greater diameter reflecting higher activity. For convenience, values are reported for three gram-negative bacterial species, Alcaligenes viscolactis ATCC 21698, Escherichia coli Tol and PD04863, Branhamella catarrhalis PD03596; and one gram-positive bacterium, Bacillus subtilis PD04555.
(In agar diffusion tests the substance spreads into inoculated agar from a disc or well.)

Another assay concerns B16 Melanoma. The assay is described as follows: solid tumor B16 melanoma in mice. The assay is classed as in vivo, mice (B6C3F1). The note with it: IP/IP, QOID × 9. The procedure:
Another test protocol utilizes the solid tumor B16 melanoma in mice. The tumor is inoculated by intraperitoneal injection. The test compounds are administered intraperitoneally once daily for nine consecutive days at various doses following tumor inoculation. A ratio of survival time for treated (T)/control (C) animals is calculated. A criterion for efficacy is a ratio T/C times 100 greater than or equal to […]. See Cancer Therapy Reviews, 7,167(1980) and references cited therein for further details and interpretation of the test.
*Procedure described in Cancer Chemotherapy Reviews, 7, 167 (1980) and
references cited therein.

The next assay relates to Escherichia coli Tol. The experiment in a line: in vitro antibacterial/antifungal (ABF) agar-disk diffusion assay, Escherichia coli Tol. The assay is classed as cell-based. The note with it: read-out: Inhibition Zone Diameter. The method, then: as §1
Assay [2] deals with Bacillus subtilis PD04555. The experiment in a line: in vitro antibacterial/antifungal (ABF) agar-disk diffusion assay, Bacillus subtilis. The assay is classed as cell-based. The note with it: read-out: Inhibition Zone Diameter. The method, then:
as §1

The test system of assay [3] is Branhamella catarrhalis PD03596. The experiment in a line: in vitro antibacterial/antifungal (ABF) agar-disk diffusion assay, Branhamella catarrhalis. The assay is classed as cell-based. Particulars: Moraxella catarrhalis, 5.0 mg/ml, read-out: Inhibition Zone Diameter. The method, then:
as §1

Another assay has as its system Escherichia coli PD08463. The experiment in a line: in vitro antibacterial/antifungal (ABF) agar-disk diffusion assay, Escherichia coli PD08463. The assay is classed as cell-based. Particulars: 5.0 mg/ml, read-out: Inhibition Zone Diameter. The procedure: as §1
[4] abbreviates: Test 1, read-out: Molar Concentration Required for 50% Inhibition of Growth (ID50).
Where [5] appears, read: Test 2, read-out: Molar Concentration Required for 50% Inhibition of Growth (ID50).
Setting [6] is: 25 mg/kg, listed as 5,8-Dichloro-4-hydroxy-1-[ [2-[(2-hydroxyethyl)aminoethyl]amino]-7,10-anthracene.
[7] abbreviates: 50 mg/kg, listed as 5,8-Dichloro-4-hydroxy-1-[ [2-[(2-hydroxyethyl)aminoethyl]amino]-7,10-anthracene.
The mark [8] stands for this setting: 100 mg/kg, listed as 5,8-Dichloro-4-hydroxy-1-[ [2-[(2-hydroxyethyl)aminoethyl]amino]-7,10-anthracene.

pIC50: −log10 of the molar value. Values joined by “and” are separate entries in the source; they are usually repeats but may differ in a detail not shown here. Equal values may be shown once. Read-outs that look alike come from different tables or passages of the source.

For the compound `CN(C)CCNc1ccc(O)c2c1C(=O)c1c(Cl)ccc(Cl)c1C2=O` [5,8-dichloro-4-hydroxy-1-[2-(dimethylamino)ethyl]amino-9,10-anthracenedione], the pIC50 was 7.04 in the assay with L1210 Leukemia (setting [4]) and 7.09 in the assay with L1210 Leukemia (setting [5]).
For the compound `O=C1c2c(O)ccc(NCCNCCO)c2C(=O)c2c(Cl)ccc(Cl)c21` [5,8-dichloro-4-hydroxy-1-[[2-[(2-hydroxyethyl)aminoethyl]amino]]-9,10-anthracenedione], the “T/C × 100” value with P388 Leukemia (6.25 mg/kg) was 154%; in the assay with P388 Leukemia (12.5 mg/kg), 146%; with P388 Leukemia (setting [6]) it was 242% and 163%; in the assay on P388 Leukemia (setting [7]), 175% and 188% and 177%; in the assay with P388 Leukemia (setting [8]) it was 235% and 202%; with B16 Melanoma (6.25 mg/kg), 166%. The “T/C × 100” value in the assay with B16 Melanoma (12.5 mg/kg) is 172%; in the assay on B16 Melanoma (20 mg/kg), 224%; with B16 Melanoma (setting [6]), 199% and 130%; in the assay on B16 Melanoma (40 mg/kg), 231%; in the assay with B16 Melanoma (setting [7]), 252% and 143%; with B16 Melanoma (80 mg/kg), 271%. The “T/C × 100” value in the assay with B16 Melanoma (setting [8]) is 270% and 191%; in the assay on B16 Melanoma (160 mg/kg), 326%; with B16 Melanoma (200 mg/kg, listed as 5,8-Dichloro-4-hydroxy-1-[ [2-[(2-hydroxyethyl)aminoethyl]amino]-7,10-anthracene) it was 180% and 172%; in the assay with B16 Melanoma (400 mg/kg), 190%. In addition, the cures result in the assay with P388 Leukemia (25 mg/kg), in the assay with B16 Melanoma (12.5 mg/kg), in the assay on B16 Melanoma (25 mg/kg), in the assay with B16 Melanoma (40 mg/kg), in the assay on B16 Melanoma (50 mg/kg) and with B16 Melanoma (80 mg/kg) was “cures” in each case. In addition, the cures entry in the assay on B16 Melanoma (100 mg/kg) is given as “cures”. For the same compound, the zone of inhibition at 1000 µg/mL in assay [1] (ATCC21698, 1.0 mg/ml) came out at 14 mm; in the assay with Escherichia coli Tol (1.0 mg/ml) it was 15 mm; in assay [2] (1.0 mg/ml) it was 14 mm. In addition, the zone of inhibition at 5000 µg/mL turned out to be 15 mm in assay [1] (ATCC21698, 5.0 mg/ml); 18 mm in the assay on Escherichia coli Tol (5.0 mg/ml); 16 mm in assay [2] (5.0 mg/ml); 14 mm in assay [3]; 14 mm in the assay with Escherichia coli PD08463. For the same compound, the pIC50 in the assay on L1210 Leukemia (setting [4]) was 7.06; with L1210 Leukemia (setting [5]), 6.95.
